Columns and labels:
Test in all cases: relative viability (nuclei count vs DMSO), 5 days (fraction); higher = more cells survive
[1] = system: LOU-NH91
Method in brief: (§1)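 After 5 days of treatment, lung cancer cells in 1536-well plates were fixed and stained in a single step (final 0.05% Triton X-100, 1% formaldehyde, 1 ug/ml Hoechst) and their nuclei counted on 4× images. Treatment had been applied by pin tool the day after seeding as one drug alone or as a fixed anchor-drug dose with five library-drug doses (not always all listed) in √10 steps. Relative viability is the nuclei count of treated wells divided by that of vehicle wells, and values are medians of duplicate plates.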

[2] = system: COR-L23
Method in brief: as §1

[3] = system: HCC-78
Method in brief: as §1

[4] = system: UMC-11
Method in brief: as §1

[5] = system: NCI-H2347
Method in brief: as §1

[6] = system: NCI-H1650
Method in brief: as §1

[7] = system: NCI-H1651
Method in brief: as §1

[8] = system: LCLC-103H
Method in brief: as §1

[9] = system: LCLC-97TM1
Method in brief: as §1

[10] = system: NCI-H647
Method in brief: as §1

[11] = system: RERF-LC-KJ
Method in brief: as §1

[12] = system: A-427
Method in brief: as §1

[13] = system: PC-3 [JPC-3]
Method in brief: as §1

[14] = system: NCI-H838
Method in brief: as §1

[15] = system: HARA
Method in brief: as §1

[16] = system: 201T
Method in brief: as §1

[17] = system: NCI-H2405
Method in brief: as §1

[18] = system: NCI-H520
Method in brief: as §1

[19] = system: LXF-289
Method in brief: as §1

[20] = system: NCI-H23
Method in brief: as §1

Nc1cccc2c1CN(C1CCC(=O)NC1=O)C2=O (centres undefined) [Lenalidomide] + CC(C)C[C@H](NC(=O)[C@H](Cc1ccccc1)NC(=O)c1cnccn1)B(O)O [Bortezomib] (partner 0.002 µM)
relative viability ([1]; first compound 0.253 µM): 0.478
relative viability ([1]; first compound 0.8 µM): 0.433
relative viability ([1]; first compound 2.53 µM): 0.501
relative viability ([1]; first compound 8 µM): 0.522
relative viability ([2]; first compound 0.253 µM): 0.994
relative viability ([2]; first compound 0.8 µM): 1.11
relative viability ([2]; first compound 2.53 µM): 1.07
relative viability ([2]; first compound 8 µM): 1.17
relative viability ([3]; first compound 0.253 µM): 0.469
relative viability ([3]; first compound 0.8 µM): 0.368
relative viability ([3]; first compound 2.53 µM): 0.461
relative viability ([3]; first compound 8 µM): 0.392
relative viability ([4]; first compound 0.253 µM): 0.526
relative viability ([4]; first compound 0.8 µM): 0.332
relative viability ([4]; first compound 2.53 µM): 0.856
relative viability ([4]; first compound 8 µM): 0.635
relative viability ([5]; first compound 0.253 µM): 1.1
relative viability ([5]; first compound 0.8 µM): 0.904
relative viability ([5]; first compound 2.53 µM): 0.979
relative viability ([5]; first compound 8 µM): 0.435
relative viability ([6]; first compound 0.253 µM): 0.197
relative viability ([6]; first compound 0.8 µM): 0.189
relative viability ([6]; first compound 2.53 µM): 0.213
relative viability ([6]; first compound 8 µM): 0.198
relative viability ([7]; first compound 0.253 µM): 0.923
relative viability ([7]; first compound 0.8 µM): 0.728
relative viability ([7]; first compound 2.53 µM): 1.05
relative viability ([7]; first compound 8 µM): 0.772
relative viability ([8]; first compound 0.253 µM): 1.01
relative viability ([8]; first compound 0.8 µM): 0.966
relative viability ([8]; first compound 2.53 µM): 1.01
relative viability ([8]; first compound 8 µM): 0.869
relative viability ([9]; first compound 0.253 µM): 0.673
relative viability ([9]; first compound 0.8 µM): 0.514
relative viability ([9]; first compound 2.53 µM): 0.705
relative viability ([9]; first compound 8 µM): 0.416
relative viability ([10]; first compound 0.253 µM): 0.88
relative viability ([10]; first compound 0.8 µM): 0.9
relative viability ([10]; first compound 2.53 µM): 1.16
relative viability ([10]; first compound 8 µM): 0.772
relative viability ([11]; first compound 0.253 µM): 1.13
relative viability ([11]; first compound 0.8 µM): 0.934
relative viability ([11]; first compound 2.53 µM): 1.09
relative viability ([11]; first compound 8 µM): 0.974
relative viability ([12]; first compound 0.253 µM): 1.08
relative viability ([12]; first compound 2.53 µM): 0.951
relative viability ([12]; first compound 8 µM): 0.908
relative viability ([13]; first compound 0.253 µM): 0.872
relative viability ([13]; first compound 0.8 µM): 0.535
relative viability ([13]; first compound 2.53 µM): 0.906
relative viability ([13]; first compound 8 µM): 0.99
relative viability ([14]; first compound 0.253 µM): 0.801
relative viability ([14]; first compound 0.8 µM): 0.887
relative viability ([14]; first compound 2.53 µM): 1.5
relative viability ([14]; first compound 8 µM): 0.446
relative viability ([15]; first compound 0.253 µM): 1.07
relative viability ([15]; first compound 0.8 µM): 0.657
relative viability ([15]; first compound 2.53 µM): 1.24
relative viability ([15]; first compound 8 µM): 1.19
relative viability ([16]; first compound 0.253 µM): 1.07
relative viability ([16]; first compound 0.8 µM): 0.553
relative viability ([16]; first compound 2.53 µM): 1.09
relative viability ([16]; first compound 8 µM): 1.11
relative viability ([17]; first compound 0.253 µM): 0.912
relative viability ([17]; first compound 0.8 µM): 0.418
relative viability ([17]; first compound 2.53 µM): 0.876
relative viability ([17]; first compound 8 µM): 0.828
relative viability ([18]; first compound 0.253 µM): 0.529
relative viability ([18]; first compound 0.8 µM): 0.933
relative viability ([18]; first compound 2.53 µM): 0.984
relative viability ([18]; first compound 8 µM): 0.365
relative viability ([19]; first compound 0.253 µM): 0.958
relative viability ([19]; first compound 0.8 µM): 0.98
relative viability ([19]; first compound 2.53 µM): 1.07
relative viability ([19]; first compound 8 µM): 1.08
relative viability ([20]; first compound 0.253 µM): 1.12
relative viability ([20]; first compound 0.8 µM): 1.03
relative viability ([20]; first compound 2.53 µM): 1.3
relative viability ([20]; first compound 8 µM): 0.9
